Key:
Type in all cases: in vivo
Diabrotica balteata = Diabrotica balteata (corn root worm), maize sprouts sprayed, L2 larvae; conditions: 96 h, application rate of 200 ppm, 4 days after infestation, read-out: effect in at least one of the two categories (mortality or growth inhibition)
Method: Diabrotica balteata (Corn Root Worm)
Maize sprouts placed onto an agar layer in 24-well microtiter plates were treated with aqueous test solutions prepared from 10′000 ppm DMSO stock solutions by spraying. After drying, the plates were infested with L2 larvae (6 to 10 per well). The samples were assessed for mortality and growth inhibition in comparison to untreated samples 4 days after infestation.
(§1) The following compounds gave an effect of at least 80% in at least one of the two categories (mortality or growth inhibition) at an application rate of 200 ppm: […]

Spodoptera littoralis = Spodoptera littoralis (Egyptian cotton leaf worm), cotton leaf discs sprayed, L1 larvae; conditions: foliar, 72 h, application rate of 200 ppm, 3 days after infestation, read-out: control (mortality, anti-feeding effect, growth inhibition)
Method: Spodoptera littoralis (Egyptian Cotton Leaf Worm)
Cotton leaf discs were placed onto agar in 24-well microtiter plates and sprayed with aqueous test solutions prepared from 10′000 ppm DMSO stock solutions. After drying the leaf discs were infested with five L1 larvae. The samples were assessed for mortality, anti-feeding effect, and growth inhibition in comparison to untreated samples 3 days after infestation. Control of Spodoptera littoralis by a test sample is given when at least one of the categories mortality, anti-feedant effect, and growth inhibition is higher than the untreated sample.

Euschistus heros = Euschistus heros (neotropical brown stink bug), soybean leaves sprayed, N2 nymphs; conditions: 120 h, application rate of 200 ppm, 5 days after infestation, read-out: effect in at least one of the two categories (mortality or growth inhibition)
Method: Euschistus heros (Neotropical Brown Stink Bug)
Soybean leaves on agar in 24-well microtiter plates were sprayed with aqueous test solutions prepared from 10′000 ppm DMSO stock solutions. After drying the leaves were infested with N2 nymphs. The samples were assessed for mortality and growth inhibition in comparison to untreated samples 5 days after infestation.
as §1

Thrips tabaci = Thrips tabaci (onion thrips) feeding/contact activity, sunflower leaf discs; conditions: foliar, 144 h, application rate of 200 ppm, mixed ages, 6 days after infestation
Method: Thrips tabaci (Onion Thrips) Feeding/Contact Activity
Sunflower leaf discs were placed on agar in 24-well microtiter plates and sprayed with aqueous test solutions prepared from 10′000 ppm DMSO stock solutions. After drying the leaf discs were infested with a thrips population of mixed ages. The samples were assessed for mortality 6 days after infestation.

Myzus persicae = Myzus persicae (green peach aphid): feeding/contact activity, sunflower leaf discs; conditions: foliar, 144 h, application rate of 200 ppm, mixed ages, 6 days after infestation
Method: Myzus persicae (Green Peach Aphid): Feeding/Contact Activity
Sunflower leaf discs were placed onto agar in a 24-well microtiter plate and sprayed with aqueous test solutions prepared from 10′000 ppm DMSO stock solutions. After drying, the leaf discs were infested with an aphid population of mixed ages. The samples were assessed for mortality 6 days after infestation.

Row | SMILES | percent effect (mortality or growth inhibition) at 200 ppm (Diabrotica balteata) [%] | mortality at 200 ppm (Spodoptera littoralis) [%] | percent effect (mortality or growth inhibition) at 200 ppm (Euschistus heros) [%] | mortality at 200 ppm (Thrips tabaci) [%] | mortality at 200 ppm (Myzus persicae) [%]
1 | Cn1ccc2n1c(=O)c(-c1cc(Cl)cc(Cl)c1)c([O-])[n+]2Cc1cnc(Cl)s1 [Compound A1, 4-[(2-chlorothiazol-5-yl)methyl]-6-(3,5-dichlorophenyl)-1-methyl-7-oxo-pyrazolo[1,5-a]pyrimidin-4-ium-5-olate] | ≥ 80 | ≥ 80 |  |  | 
2 | Cn1ccc2n1c(=O)c(-c1cccc(C(F)(F)F)c1)c([O-])[n+]2CCC#N [Compound B2, 4-(2-cyanoethyl)-1-methyl-7-oxo-6-[3-(trifluoromethyl)phenyl]pyrazolo[1,5-a]pyrimidin-4-ium-5-olate] | ≥ 80 |  | ≥ 80 | ≥ 80 | 
3 | Cn1ccc2n1c(=O)c(-c1cc(Cl)cc(Cl)c1)c([O-])[n+]2CCn1cncn1 [Compound B21] |  |  |  |  | ≥ 80

Reference: US20200392138A1, “PESTICIDALLY ACTIVE MESOIONIC HETEROCYCLIC COMPOUNDS” (Syngenta Participations AG, priority 2017, published 2020)
